Drawing on patent US12384776B2, “Compounds and uses thereof” (Foghorn Therapeutics Inc., priority 2019, dated 2025), this text covers IC50 for 43 compounds.

What is called IC50 is the concentration that inhibits the measured activity by half. Higher therefore signals a need for much substance.

Chain of Nanoluciferase-BRD9 fusion protein (3×FLAG-NLuc-BRD9) in SYO-1 cells (Q9H8M2 whole entry, the tested form may be a part): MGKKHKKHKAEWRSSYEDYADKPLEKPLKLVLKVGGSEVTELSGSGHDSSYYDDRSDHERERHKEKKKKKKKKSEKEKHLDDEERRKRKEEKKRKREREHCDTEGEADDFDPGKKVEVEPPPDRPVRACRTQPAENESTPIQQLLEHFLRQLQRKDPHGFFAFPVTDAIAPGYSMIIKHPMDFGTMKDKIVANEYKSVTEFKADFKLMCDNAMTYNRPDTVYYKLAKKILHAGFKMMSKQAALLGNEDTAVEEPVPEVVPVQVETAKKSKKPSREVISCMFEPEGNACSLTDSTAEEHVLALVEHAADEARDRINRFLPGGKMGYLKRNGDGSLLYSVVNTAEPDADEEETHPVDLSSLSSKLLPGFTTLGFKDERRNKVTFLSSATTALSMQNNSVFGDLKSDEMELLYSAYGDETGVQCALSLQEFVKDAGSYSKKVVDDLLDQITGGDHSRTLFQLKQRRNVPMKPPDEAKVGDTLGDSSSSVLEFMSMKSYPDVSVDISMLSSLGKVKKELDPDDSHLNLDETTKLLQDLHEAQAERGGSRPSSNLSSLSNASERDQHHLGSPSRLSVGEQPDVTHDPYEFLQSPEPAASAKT

The target of the test is Nanoluciferase-BRD9 fusion protein (3×FLAG-NLuc-BRD9) in SYO-1 cells (Homo sapiens (Human), UniProt Q9H8M2). The experiment in a line: SYO1 BRD9 NanoLuc degradation assay. The format is cell-based. The conditions noted are these: SYO-1 cells expressing 3×FLAG-NLuc-BRD9, 6 hours incubation, top dose 1 μM. In short, it runs like this:
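Stable SYO-1 line expressing 3×FLAG-NLuc-BRD9, treated with 10-point 3-fold dilutions (top 1 μM final) for 6 hours. Nanoluciferase luminescence read with Nano-Glo reagent. % inhibition relative to DMSO (high control) and 1 μM reference BRD9 degrader (low control).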
As for `COc1cc(-c2cn(C)c(=O)c3c2CCN(C(=O)NCC2CC4(CCN(CCCOc5ccc6c(c5)C(=O)N(C5CCC(=O)NC5=O)C6=O)CC4)CO2)C3)cc(OC)c1CN(C)C` (stereo not shown) [Compound D233], the concentration for half-maximal inhibition (IC50) is 100 to 1000 nM. `COc1cc(-c2cn(C)c(=O)c3c2CCN(C(=O)NCCCN2CCC4CCN(c5ccc6c(c5)C(=O)N(C5CCC(=O)NC5=O)C6=O)C4C2)C3)cc(OC)c1CN(C)C` (stereo not shown) [Compound D234] yielded an IC50 of 10 to 100 nM. As for `COc1cc(-c2cn(C)c(=O)c3c2CCN(C(=O)NCC2CC4(CCN(CCCOc5ccc6c(c5)C(=O)N(C5CCC(=O)NC5=O)C6=O)CC4)C2)C3)cc(OC)c1CN(C)C` (stereo not shown) [Compound D235], the IC50 is 100 to 1000 nM. `COc1cc(-c2cn(C)c(=O)c3c2CCN(C(=O)NCCCN2CCC4(CC2)CCN(c2ccc5c(c2)C(=O)N(C2CCC(=O)NC2=O)C5=O)C4)C3)cc(OC)c1CN(C)C` (stereo not shown) [Compound D236] came in with an IC50 of 10 to 100 nM. Compound `COc1cc(-c2cn(C)c(=O)c3c2CCN(C(=O)NC2CCC24CCN(CCCOc2ccc5c(c2)C(=O)N(C2CCC(=O)NC2=O)C5=O)CC4)C3)cc(OC)c1CN(C)C` (stereo not shown) [Compound D237] showed an IC50 of at least 1000 nM. `COc1cc(-c2cn(C)c(=O)c3c2CCN(C(=O)NCCCN2CC4(CCN(c5ccc6c(c5)C(=O)N(C5CCC(=O)NC5=O)C6=O)CC4)C2)C3)cc(OC)c1CN(C)C` (stereo not shown) [Compound D238] came in with an IC50 of 10 to 100 nM. For `COc1cc(-c2cn(C)c(=O)c3c2CCN(C(=O)NCC2CC24CCN(CCCCN2CCN(c5ccc6c(c5)C(=O)N(C5CCC(=O)NC5=O)C6=O)CC2)CC4)C3)cc(OC)c1CN(C)C` (stereo not shown) [Compound D240], the IC50 was in the range of 100 to 1000 nM. Compound `COc1cc(-c2cn(C)c(=O)c3c2CCN(C(=O)NCCCN2CC4(CCN4c4ccc5c(c4)C(=O)N(C4CCC(=O)NC4=O)C5=O)C2)C3)cc(OC)c1CN(C)C` (stereo not shown) [Compound D241] registered a 50% inhibitory concentration (IC50) of 100 to 1000 nM. To `COc1cc(-c2cn(C)c(=O)c3c2CCN(C(=O)NCC2CC24CCN(CCCOc2ccc5c(c2)C(=O)N(C2CCC(=O)NC2=O)C5=O)CC4)C3)cc(OC)c1CN(C)C` (stereo not shown) [Compound D242] belongs 100 to 1000 nM; to `COc1cc(-c2cn(C)c(=O)c3c2CCN(C(=O)NC2CC4CC2CN4CCCCN2CCN(c4ccc5c(c4)C(=O)N(C4CCC(=O)NC4=O)C5=O)CC2)C3)cc(OC)c1CN(C)C` (stereo not shown) [Compound D243], at least 1000 nM. Regarding `COc1cc(-c2cn(C)c(=O)c3c2CCN(C(=O)NC2CCC4CN(CCCOc5ccc6c(c5)C(=O)N(C5CCC(=O)NC5=O)C6=O)CC42)C3)cc(OC)c1CN(C)C` (stereo not shown) [Compound D244], the IC50 is 100 to 1000 nM. For `COc1cc(-c2cn(C)c(=O)c3c2CCN(C(=O)NC2CC4CN(CCCCN5CCN(c6ccc7c(c6)C(=O)N(C6CCC(=O)NC6=O)C7=O)CC5)CC4C2)C3)cc(OC)c1CN(C)C` (stereo not shown) [Compound D245], the IC50 fell in the range of 100 to 1000 nM. `COc1cc(-c2cn(C)c(=O)c3c2CCN(C(=O)NCCCN2CCC4(CC2)CN(c2ccc5c(c2)C(=O)N(C2CCC(=O)NC2=O)C5=O)C4)C3)cc(OC)c1CN(C)C` (stereo not shown) [Compound D246] had an IC50 of under 10 nM.

`COc1cc(-c2cn(C)c(=O)c3c2CCN(C(=O)NC2C[C@@H]4CN(CCCCN5CCN(c6ccc7c(c6)C(=O)N(C6CCC(=O)NC6=O)C7=O)CC5)C[C@H]24)C3)cc(OC)c1CN(C)C` (stereo partly shown) [Compound D247]: the half-inhibitory concentration (IC50) was 100 to 1000 nM. Regarding `COc1cc(-c2cn(C)c(=O)c3c2CCN(C(=O)NC2C[C@@H]4CN(CCCOc5ccc6c(c5)C(=O)N(C5CCC(=O)NC5=O)C6=O)C[C@H]24)C3)cc(OC)c1CN(C)C` (stereo partly shown) [Compound D248], the IC50 is at least 1000 nM. Regarding `COc1cc(-c2cn(C)c(=O)c3c2CCN(C(=O)NC2C[C@@H]4CN(CCOc5ccc6c(c5)C(=O)N(C5CCC(=O)NC5=O)C6=O)C[C@H]24)C3)cc(OC)c1CN(C)C` (stereo partly shown) [Compound D249], the IC50 is at least 1000 nM.

Turning to `COc1cc(-c2cn(C)c(=O)c3c2CCN(C(=O)NC2CCC4(CCN(CCCOc5ccc6c(c5)C(=O)N(C5CCC(=O)NC5=O)C6=O)C4)C2)C3)cc(OC)c1CN(C)C` (stereo not shown) [Compound D250], the half-inhibitory concentration (IC50) lay in the range of 100 to 1000 nM. `CNC(=O)N1CCc2c(-c3cc(OC)c(CN4CCC(CCN5CCC6(CC5)CC(Oc5ccc7c(c5)C(=O)N(C5CCC(=O)NC5=O)C7=O)C6)CC4)c(OC)c3)cn(C)c(=O)c2C1` (stereo not shown) [Compound D251] registered a half-maximal inhibitory concentration (IC50) of under 10 nM. With `COc1cc(-c2cn(C)c(=O)c3c2CCN(C(=O)NC2CC4(CCN(CCCOc5ccc6c(c5)C(=O)N(C5CCC(=O)NC5=O)C6=O)CC4)C2)C3)cc(OC)c1CN(C)C` (stereo not shown) [Compound D252], the concentration for half-maximal inhibition (IC50) is 100 to 1000 nM. Consider `CNC(=O)N1CCc2c(-c3cc(OC)c(CN4CCC(CN5CCC6(CC5)CC(Oc5ccc7c(c5)C(=O)N(C5CCC(=O)NC5=O)C7=O)C6)CC4)c(OC)c3)cn(C)c(=O)c2C1` (stereo not shown) [Compound D253], for which the IC50 is under 10 nM. Turning to `CNC(=O)N1CCc2c(-c3cc(OC)c(CN4CCC(C(=O)N5CCC6(CC5)CC(Oc5ccc7c(c5)C(=O)N(C5CCC(=O)NC5=O)C7=O)C6)CC4)c(OC)c3)cn(C)c(=O)c2C1` (stereo not shown) [Compound D254], the IC50 was under 10 nM. Compound `CNC(=O)N1CCc2c(-c3cc(OC)c(CN4CCC5(CC4)CC(N4CCN(c6ccc7c(c6)C(=O)N(C6CCC(=O)NC6=O)C7=O)CC4)C5)c(OC)c3)cn(C)c(=O)c2C1` (stereo not shown) [Compound D255] registered an IC50 of under 10 nM. Compound `CNC(=O)N1CCc2c(-c3cc(OC)c(CN4CCC(CN5CCN(c6ccc7c(c6)C(=O)N(C6CCC(=O)NC6=O)C7=O)CC5)CC4)c(OC)c3)cn(C)c(=O)c2C1` (stereo not shown) [Compound D256] gave an IC50 of under 10 nM.

Compound `CNC(=O)N1CCc2c(-c3cc(OC)c(CN4CC(CCCN5CCN(c6ccc7c(c6)C(=O)N(C6CCC(=O)NC6=O)C7=O)CC5)C4)c(OC)c3)cn(C)c(=O)c2C1` (stereo not shown) [Compound D257] registered an IC50 of at least 1000 nM. On to `CNC(=O)N1CCc2c(-c3cc(OC)c(CN4CC(CCN5CCN(c6ccc7c(c6)C(=O)N(C6CCC(=O)NC6=O)C7=O)CC5)C4)c(OC)c3)cn(C)c(=O)c2C1` (stereo not shown) [Compound D258], for which the IC50 was 100 to 1000 nM. Take `COc1cc(-c2cn(C)c(=O)c3c2CCN(C(=O)NCC2CC4(CCN(CCOc5ccc6c(c5)C(=O)N(C5CCC(=O)NC5=O)C6=O)CC4)CO2)C3)cc(OC)c1CN(C)C` (stereo not shown) [Compound D259]: the IC50 was 10 to 100 nM. Then `COc1cc(-c2cn(C)c(=O)c3c2CCN(C(=O)NCCCN2CCC4C2CN4c2ccc4c(c2)C(=O)N(C2CCC(=O)NC2=O)C4=O)C3)cc(OC)c1CN(C)C` (stereo not shown) [Compound D260], with 10 to 100 nM; and `COc1cc(-c2cn(C)c(=O)c3c2CCN(C(=O)NCCCN2CCC4(CCN4c4ccc5c(c4)C(=O)N(C4CCC(=O)NC4=O)C5=O)C2)C3)cc(OC)c1CN(C)C` (stereo not shown) [Compound D261], with 10 to 100 nM. In the case of `COc1cc(-c2cn(C)c(=O)c3c2CCN(C(=O)NC2CC4(CCN(CCCOc5ccc6c(c5)C(=O)N(C5CCC(=O)NC5=O)C6=O)C4)C2)C3)cc(OC)c1CN(C)C` (stereo not shown) [Compound D262], the IC50 was in the range of 100 to 1000 nM. The compound `COc1cc(-c2cn(C)c(=O)c3c2CCN(C(=O)NC2CC4(C2)CN(CCCOc2ccc5c(c2)C(=O)N(C2CCC(=O)NC2=O)C5=O)C4)C3)cc(OC)c1CN(C)C` (stereo not shown) [Compound D263] registered an IC50 of 100 to 1000 nM. Consider `COc1cc(-c2cn(C)c(=O)c3c2CCN(C(=O)NC2CC4(C2)CN(CCOc2ccc5c(c2)C(=O)N(C2CCC(=O)NC2=O)C5=O)C4)C3)cc(OC)c1CN(C)C` (stereo not shown) [Compound D264], for which the IC50 was at least 1000 nM. `COc1cc(-c2cn(C)c(=O)c3c2CCN(C(=O)NCC2CC4CN(CCCOc5ccc6c(c5)C(=O)N(C5CCC(=O)NC5=O)C6=O)CC4C2)C3)cc(OC)c1CN(C)C` (stereo not shown) [Compound D265] registered a half-inhibitory concentration (IC50) of 100 to 1000 nM.

The compound `COc1cc(-c2cn(C)c(=O)c3c2CCN(C(=O)NCC2CC4CN(CCOc5ccc6c(c5)C(=O)N(C5CCC(=O)NC5=O)C6=O)CC4C2)C3)cc(OC)c1CN(C)C` (stereo not shown) [Compound D266] displayed an IC50 of 10 to 100 nM.

On to `COc1cc(-c2cn(C)c(=O)c3c2CCN(C(=O)NCC2CC4(CCN(CCOc5ccc6c(c5)C(=O)N(C5CCC(=O)NC5=O)C6=O)CC4)C2)C3)cc(OC)c1CN(C)C` (stereo not shown) [Compound D267], for which the IC50 was 10 to 100 nM. Then `COc1cc(-c2cn(C)c(=O)c3c2CCN(C(=O)NCC2CC4(C2)CN(CCOc2ccc5c(c2)C(=O)N(C2CCC(=O)NC2=O)C5=O)C4)C3)cc(OC)c1CN(C)C` (stereo not shown) [Compound D268], with 10 to 100 nM. In turn, `COc1cc(-c2cn(C)c(=O)c3c2CCN(C(=O)NCC2CC24CCN(CCOc2ccc5c(c2)C(=O)N(C2CCC(=O)NC2=O)C5=O)CC4)C3)cc(OC)c1CN(C)C` (stereo not shown) [Compound D269] came in with a half-inhibitory concentration (IC50) of 10 to 100 nM. Then `COc1cc(-c2cn(C)c(=O)c3c2CCN(C(=O)NC2CC4CC2CN4CCCOc2ccc4c(c2)C(=O)N(C2CCC(=O)NC2=O)C4=O)C3)cc(OC)c1CN(C)C` (stereo not shown) [Compound D270], with 100 to 1000 nM; and `COc1cc(-c2cn(C)c(=O)c3c2CCN(C(=O)NC2CCC4CN(CCOc5ccc6c(c5)C(=O)N(C5CCC(=O)NC5=O)C6=O)CC42)C3)cc(OC)c1CN(C)C` (stereo not shown) [Compound D271], with 10 to 100 nM; and `COc1cc(-c2cn(C)c(=O)c3c2CCN(C(=O)NC2CC4CN(CCOc5ccc6c(c5)C(=O)N(C5CCC(=O)NC5=O)C6=O)CC4C2)C3)cc(OC)c1CN(C)C` (stereo not shown) [Compound D273], with 100 to 1000 nM. In turn, `COc1cc(-c2cn(C)c(=O)c3c2CCN(C(=O)NC2CC4CC2CN4CCOc2ccc4c(c2)C(=O)N(C2CCC(=O)NC2=O)C4=O)C3)cc(OC)c1CN(C)C` (stereo not shown) [Compound D274] came in with an IC50 of 100 to 1000 nM. `CNC(=O)N1CCc2c(-c3cc(OC)c(CN4CC(CC(=O)N5CCC6(CC5)CC(Oc5ccc7c(c5)C(=O)N(C5CCC(=O)NC5=O)C7=O)C6)C4)c(OC)c3)cn(C)c(=O)c2C1` (stereo not shown) [Compound D275] came in with an IC50 of 10 to 100 nM. Compound `CNC(=O)N1CCc2c(-c3cc(OC)c(CN(C)C45CC(C(=O)NCCCCCOc6ccc7c(c6)C(=O)N(C6CCC(=O)NC6=O)C7=O)(C4)C5)c(OC)c3)cn(C)c(=O)c2C1` (stereo not shown) [Compound D276] yielded a concentration for half-maximal inhibition (IC50) of 10 to 100 nM. Consider `CNC(=O)N1CCc2c(-c3cc(OC)c(CN4CC(S(=O)(=O)NCCCOc5ccc6c(c5)C(=O)N(C5CCC(=O)NC5=O)C6=O)C4)c(OC)c3)cn(C)c(=O)c2C1` (stereo not shown) [Compound D277], for which the half-maximal inhibitory concentration (IC50) was 100 to 1000 nM.
